Reference: publication PMC11302339, “A series of pyrimidine-based antifungals with anti-mold activity disrupt ER function in Aspergillus fumigatus” (Microbiology Spectrum, 2024)
Converted amounts (≈) assume the structure as drawn. Marks after values point to notes of the source that are not given here.

Legend:
A. fumigatus biofilms = assay: A. fumigatus hyphal (biofilm) activity, resazurin; type: cell-based, Aspergillus fumigatus; conditions: conidia germinated 14 hours
Method: To determine antifungal activity against A. fumigatus hyphae, a 96-well plate was inoculated with 1 × 10^3 conidia per well in 100 µL RPMI + MOPS with the edge wells filled with 200 µL sterile water to minimize edge effects. Plates were incubated at 37°C for 14 hours. A twofold dilution series of 1 or 7 was prepared in RPMI + MOPS at 2× concentration with 0.002% resazurin, then 100 µL of the drug was added to wells, and plates were incubated for an additional 24 hours. Fluorescence was measured with an excitation wavelength of 570 nm and an emission wavelength of 615 nm. Data are representative of two independent experiments performed in biological triplicate.

[1] = test system: C. neoformans MAPK mutants; assay: C. neoformans competition assay with MAPK mutants; type: cell-based, Cryptococcus neoformans; conditions: 1.5 µg/mL 1, 24 hours, 37°C
Method: H99-mNeon and MAPK mutants (obtained from the C. neoformans kinase deletion collection, FGSC) were grown overnight in YPD at 30°C then washed in PBS. Each strain was counted and diluted into 96-well plates such that each well contained 1 × 10^3 CFU/strain with 1.5 µg/mL 1 or DMSO in 100 µL total volume. Plates were incubated at 37°C for 24 hours before analyzing on an Attune NxT Flow Cytometer with CytKick autosampler and Attune Cytometric software. Gating strategy was optimized for single cells as previously described ([50]). mNeonGreen positive and negative populations were identified by histogram plot with 100,000 cells counted per sample. Data represent mean and SD of biological triplicate and are representative of two independent experiments.

C. neoformans [2] = assay: C. neoformans time kill assay; type: cell-based, Cryptococcus neoformans
Method: Overnight cultures of H99 were enumerated and diluted 1 × 10^5 CFU/mL in YPD with 4 µg/mL 1, 8 µg/mL 1, or DMSO. Cultures were incubated at 37°C with shaking for 30 hours with sampling at t = 0, 2, 4, 6, 8, 24, and 30 hours, then 10-fold serial dilutions of each sample were prepared and spotted on YPD. Viable colonies were enumerated after 48 hours at 30°C. Data are representative of two independent experiments performed in biological triplicate with technical duplicates.

C. neoformans [3] = assay: MIC testing in the presence of 10% serum; type: cell-based
Method: (§1) MICs were determined using Clinical and Laboratory Standards Institute guidelines ([48], [49]). All yeasts were cultured overnight in 3 mL YPD at 30°C, then washed twice in sterile phosphate-buffered saline (PBS). Twofold serial dilutions of each drug were prepared in RMPI + MOPS, then 1 × 10^3 cells were added per well. For mold species, wells were inoculated with 1.25 × 10^3 conidia per well. Plates were incubated at 37°C for 24 (Candida spp. and S. cerevisiae), 48 (Aspergillus spp., M. circinelloides, S. apiospermum, and L. prolificans), or 72 (C. neoformans and F. oxysporum) hours. S. cerevisiae BY4743 MICs were tested in YPD due to nutritional requirements of this strain. Each assay was performed in technical duplicate in at least two independent experiments performed on different days.

A. niger = assay: MIC testing (CLSI broth dilution); type: cell-based, Aspergillus niger; conditions: strain S007, clinical isolate; no clear well, growth reduced by ≥50% at MEC
Method: as §1

[4] = Protein binding analysis, plasma; type: in vitro ADME; conditions: mouse, mouse plasma diluted 1:10 with PBS
A. terreus = assay: MIC testing (CLSI broth dilution); type: cell-based, Aspergillus terreus
Method: as §1

[5] = test system: Saccharomyces cerevisiae BY4741; assay: Generation of resistant isolates (serial passaging); type: cell-based; conditions: from 1/4 MIC, twofold increases, at least 50 generations
Method: Finally, we attempted to generate resistant isolates to understand the rate of resistance and potentially uncover mechanism of action. First, to determine spontaneous rates, we performed high-density plating (~2 × 10^9 cells) of C. neoformans on YPD plates containing 64 µg/mL 1 ([24]). […] Next, we employed serial passaging of both C. neoformans H99 and Saccharomyces cerevisiae BY4741 to evaluate evolved resistance upon exposure to sub-MIC concentrations. Yeast cells were grown in a 96-well format in the presence of 1/4 MIC 1, then cultures were passaged to fresh media containing a twofold increase in drug concentration. At each passage, the inoculum was diluted ~1:100 to allow ~10 generations of growth for a total of at least 50 generations over the course of the experiment.

S. cerevisiae = assay: MIC testing (broth dilution, YPD); type: cell-based; conditions: Saccharomyces cerevisiae, 24 h
Method: as §1

[6] = test system: S. cerevisiae heterozygous mutants; assay: Chemical haploinsufficiency screen and spot dilution validation; type: cell-based; conditions: Saccharomyces cerevisiae, read-out: inhibition of wild-type growth
[7] = Protein binding analysis, brain; type: in vitro ADME
[8] = read-out: Corrected % Protein binding (converted)

## OC1CC(c2cc(N3CCC(CCc4ccccc4)CC3)ncn2)C1 (stereo not shown) [compound 1]
A. fumigatus biofilms; Aspergillus fumigatus, then treated 24 hours, read-out: IC50 of hyphal growth
  IC50: 1.66 µg/mL (≈ 4.92 µM)
A. fumigatus biofilms; escalating doses 24 hours
  inhibition of hyphal growth: dose-dependent inhibition of hyphal growth
[1]; ∆hog1
  reduction of mutant in competition with H99-GFP: 20%
[1]; ∆pbs2
  reduction of mutant in competition with H99-GFP: 60%
[1]; ∆ssk2
  reduction of mutant in competition with H99-GFP: 63%
C. neoformans [2]; 8 µg/mL, 24 hours post treatment (Fig. S1)
  propidium iodide staining of C. neoformans vs vehicle: did not observe changes in propidium iodide
C. neoformans [2]; 2× (4 µg/mL) or 4× (8 µg/mL) MIC over 30 hours
  type of activity (time kill): fungistatic
C. neoformans [2]; 4 or 8 µg/mL, 8, 24 and 30 hours post-treatment
  viable CFUs vs vehicle-treated controls: significantly reduced
C. neoformans [3]
  increase in MIC in the presence of 10% serum: 2 fold
A. niger
  Minimum effective concentration (MEC): 16^b µg/mL
[4]; [8]
  fraction unbound at 6 h, 5 µM: 0.0285
[4]; uncorrected (plasma diluted 1:10), read-out: % Protein binding (converted)
  fraction unbound at 6 h, 5 µM: 0.227
A. terreus; Aspergillus terreus, strain S010, clinical isolate, CLSI conditions
  MIC: 8 µg/mL (≈ 23.7 µM)
A. terreus; strain S023, clinical isolate, no clear well, growth reduced by ≥50% at MEC
  Minimum effective concentration (MEC): 16^b µg/mL
[5]
  evolved resistance, serial passaging: did not recover stable resistance
S. cerevisiae
  MIC: 8 µg/mL (≈ 23.7 µM)
[6]
  inhibition at 32 µg/mL: ~50%
[7]; [8]
  fraction unbound at 6 h, 5 µM: 0.0112
[7]; uncorrected
  fraction unbound: 0.1
